Patent US20240083857A1, “2-Methyl-Quinazolines” (Bayer Pharma Aktiengesellschaft, priority 2017, published 2024)

Tests used:
[1] = target: human SOS1 (loading of human K-Ras^G12C-GDP with fluorescent GTP-analog) (Homo sapiens, UniProt Q07889); test: Biochemical assay 3: K-Ras^G12C activation assay by hSOS1 (HTRF); settings: no GTP; for IC50: read-out: Assay 3 (KRAS-Activation by SOS no GTP) activity expressed as IC50
[2] = target: human SOS1 (nucleotide exchange of K-Ras^G12C) (Homo sapiens, UniProt Q07889); test: Biochemical assay 2: K-Ras^G12C activation assay by hSOS1 at high GTP concentration (HTRF); settings: high GTP; for IC50: read-out: Assay 2 (KRAS-Activation by SOS high GTP) activity expressed as IC50
[3] = target: K-Ras^G12C : hSOS1 interaction (Homo sapiens, UniProt Q07889); test: Biochemical assay 1: K-Ras^G12C interaction assay with hSOS1 (HTRF); format: binding; settings: for IC50: read-out: Assay 1 (KRAS-SOS Interaction) activity expressed as IC50
Method: Biochemical assay 1: K-Ras^G12C Interaction Assay with hSOS1
This assay quantifies the equilibrium interaction of human SOS1 with K-Ras^Gl2C. Detection of the interaction is achieved by measuring homogenous time-resolved fluorescence resonance energy transfer (HTRF) from antiGST-Europium (FRET donor) bound to GST-K-Ras^G12C to anti-6His-XL665 bound to His-tagged hSOS1 (FRET-acceptor).
The assay buffer contained 5 mM HEPES pH 7.4 (Applichem), 150 mM NaCl (Sigma), 10 mM EDTA (Promega), 1 mM DTT (Thermofisher), 0.05% BSA Fraction V, pH 7.0, (ICN Biomedicals), 0.0025% (v/v) Igepal (Sigma) and 100 mM KF (FLUKA).
Concentrations of protein batches used were optimized to be within the linear range of the HTRF signal. A Ras working solution was prepared in assay buffer containing typically 10 nM GST-hK-RasG12C and 2 nM antiGST-Eu(K) (Cisbio, France). A SOS working solution was prepared in assay buffer containing typically 20 nM His-hSOS1 and 10 nM anti-6His-XL665 (Cisbio, France). An inhibitor control solution was prepared in assay buffer containing 10 nM anti-6His-XL665 without hSOS1.
Fifty nl of a 100-fold concentrated solution of the test compound in DMSO were transferred into a black microtiter test plate (384 or 1536, Greiner Bio-One, Germany). For this, either a Hummingbird liquid handler (Digilab, MA, USA) or an Echo acoustic system (Labcyte, CA, USA) was used.
All steps of the assay were performed at 20° C. A volume of 2.5 μl of the Ras working solution was added to all wells of the test plate using a Multidrop dispenser (Thermo Labsystems). After 2 min preincubation, 2.5 μl of the SOS working solution were added to all wells except for those wells at the side of the test plate that were subsequently filled with 2.5 μl of the inhibitor control solution. After 60 min incubation the fluorescence was measured with a Pherastar (BMG, Germany) using the HTRF module (excitation 337 nm, emission 1: 620 nm, emission 2: 665 nm).
IC50 values were calculated by 4-Parameter fitting using a commercial software package (Genedata Screener, Switzerland).

Row | Structure (SMILES) | IC50 [1] [µM] | IC50 [2] [µM] | IC50 [3] [µM] | inhibition at 20 µM ([1]; read-out: Assay 3 (KRAS-Activation by SOS no GTP) activity expressed as % inhibition at 20 μM, at 20 μM) [%] | inhibition at 20 µM ([2]; read-out: Assay 2 (KRAS-Activation by SOS high GTP) activity expressed as % inhibition at 20 μM, at 20 μM) [%] | inhibition at 20 µM ([3]; read-out: Assay 1 (KRAS-SOS Interaction) activity expressed as % inhibition at 20 μM) [%]
1 | CCOCc1ccccc1-c1ccc([C@H](C)Nc2nc(C)nc3cc(OC)c(OC)cc23)s1 (racemic) [Example 133, N-[1-{5-[2-(ethoxymethyl)phenyl]thiophen-2-yl}ethyl]-6,7-dimethoxy-2-methylquinazolin-4-amine] | 5.67 | 4.03 | 4.3 |  |  | 
2 | COc1cc2nc(C)nc(N[C@@H](C)c3ccc(-c4ccc(C(=O)NCCN(C)C)cc4)s3)c2cc1OC (racemic) [Example 142, 4-(5-{1-[(6,7-dimethoxy-2-methylquinazolin-4-yl)amino]ethyl}thiophen-2-yl)-N-[2-(dimethylamino)ethyl]benzamide] | 1.02 | 1.81 | 1.01 |  |  | 
3 | C/C=C(\C)c1ccc([C@H](C)Nc2nc(C)nc3cc(OC)c(OC)cc23)s1 (racemic) [Example 143, N-[1-{5-[(2E)-but-2-en-2-yl]thiophen-2-yl}ethyl]-6,7-dimethoxy-2-methylquinazolin-4-amine] | 17.8 | 8.76 | 7.64 |  |  | 
4 | COc1cc2nc(C)nc(N[C@@H](C)c3ccc(/C=C/Cc4ccccc4)s3)c2cc1OC (racemic) [Example 145, 6,7-dimethoxy-2-methyl-N-[1-{5-[(1E)-3-phenylprop-1-en-1-yl]thiophen-2-yl}ethyl]quinazolin-4-amine] |  |  |  | 11 | 18 | 40
5 | COc1cc2nc(C)nc(N[C@@H](C)c3ccc(-c4cc(N)ccc4C)s3)c2cc1OC (racemic) [Example 146, N-{1-[5-(5-amino-2-methylphenyl)thiophen-2-yl]ethyl}-6,7-dimethoxy-2-methylquinazolin-4-amine] | 1.48 | 1.5 | 0.911 |  |  | 
6 | COc1cc2nc(C)nc(N[C@@H](C)c3ccc(-c4c(C)noc4C)s3)c2cc1OC (racemic) [Example 147, N-{1-[5-(3,5-dimethyl-1,2-oxazol-4-yl)thiophen-2-yl]ethyl}-6,7-dimethoxy-2-methylquinazolin-4-amine] | 0.658 | 0.767 | 0.397 |  |  | 
7 | COc1cc2nc(C)nc(N[C@@H](C)c3ccc(-c4ccccc4S(C)(=O)=O)s3)c2cc1OC (racemic) [Example 148, 6,7-dimethoxy-2-methyl-N-[1-{5-[2-(methylsulfonyl)phenyl]thiophen-2-yl}ethyl]quinazolin-4-amine] | 3.06 | 3.4 | 1.41 |  |  | 
8 | COc1cc2nc(C)nc(N[C@@H](C)c3ccc(-c4ccccc4OC(F)(F)F)s3)c2cc1OC (racemic) [Example 150, 6,7-dimethoxy-2-methyl-N-[1-{5-[2-(trifluoromethoxy)phenyl]thiophen-2-yl}ethyl]quinazolin-4-amine] | 13.2 | 13.2 | 7.36 |  |  | 
9 | COc1cc2nc(C)nc(N[C@@H](C)c3ccc(-c4ccc5[nH]ccc5c4)s3)c2cc1OC (racemic) [Example 152, N-{1-[5-(1H-indol-5-yl)thiophen-2-yl]ethyl}-6,7-dimethoxy-2-methylquinazolin-4-amine] | 11.1 | 7.33 | 5.48 |  |  | 
10 | COc1cc2nc(C)nc(N[C@@H](C)c3ccc(-c4ccoc4)s3)c2cc1OC (racemic) [Example 153, N-{1-[5-(furan-3-yl)thiophen-2-yl]ethyl}-6,7-dimethoxy-2-methylquinazolin-4-amine] | 4.1 | 2.73 | 2.35 |  |  | 
11 | COc1cc2nc(C)nc(N[C@@H](C)c3ccc(-c4csc5ccccc45)s3)c2cc1OC (racemic) [Example 154, N-{1-[5-(1-benzothiophen-3-yl)thiophen-2-yl]ethyl}-6,7-dimethoxy-2-methylquinazolin-4-amine] | 12.9 | 8.78 | 7.82 |  |  | 
12 | COc1cc2nc(C)nc(N[C@@H](C)c3ccc(-c4cc5ccccc5n4C)s3)c2cc1OC (racemic) [Example 155, 6,7-dimethoxy-2-methyl-N-{1-[5-(1-methyl-1H-indol-2-yl)thiophen-2-yl]ethyl}quinazolin-4-amine] | 1.64 | 1.47 | 0.992 |  |  | 
